PubChem BioAssay (NCI)
“And” between values parts separate entries of the source, which are not always exact repeats. Equal entries are not always repeated.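 48-hour exposure; five concentrations; linearly interpolated endpoints. The concentration for 50% growth inhibition is given as GI50. TGI: total growth inhibition.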

Tests used:
Test in all cases: DTP human tumour cell line panel, 48 h
CCRF-CEM leukemia = test system: CCRF-CEM leukemia
HOP-62 NSCLC = test system: HOP-62 NSCLC
KM12 colon = test system: KM12 colon
MCF7 breast = test system: MCF7 breast
MDA-MB-231 breast = test system: MDA-MB-231 breast
NCI-H23 lung = test system: NCI-H23 lung
OVCAR-3 ovarian = test system: OVCAR-3 ovarian
PC-3 prostate = test system: PC-3 prostate
SNB-19 CNS = test system: SNB-19 CNS
TK-10 renal = test system: TK-10 renal

Row | SMILES | GI50 (CCRF-CEM leukemia) | TGI (CCRF-CEM leukemia) [µM] | GI50 (HOP-62 NSCLC) [µM] | TGI (HOP-62 NSCLC) [µM] | GI50 (KM12 colon) | TGI (KM12 colon) [µM] | GI50 (MCF7 breast) [µM] | TGI (MCF7 breast) | GI50 (MDA-MB-231 breast) [µM] | TGI (MDA-MB-231 breast) [µM] | GI50 (NCI-H23 lung) [µM] | TGI (NCI-H23 lung) | GI50 (OVCAR-3 ovarian) | TGI (OVCAR-3 ovarian) [µM] | GI50 (PC-3 prostate) [µM] | TGI (PC-3 prostate) [µM] | GI50 (SNB-19 CNS) [µM] | TGI (SNB-19 CNS) [µM] | GI50 (TK-10 renal) [µM] | TGI (TK-10 renal) [µM]
1 | Cc1csc(Nc2nc(-c3cccc(Br)c3)nc(C(Cl)(Cl)Cl)n2)n1 | > 100 µM | > 100 | 2.21 | > 28.7 | 1.58 µM | 4.82 | 1.43 | > 100 µM | 2.78 | > 100 | > 100 | > 100 µM | 1.11 µM | 3.24 | 1.92 | > 100 | 2.87 | > 100 | 2.25 | > 100
2 | COc1ccc(-c2oc(=O)ccc2-c2cc(OC)c(OC)c(OC)c2)cc1F | 26.6 µM | > 100 | 32.7 | > 100 | 4.52 µM | > 100 | 9.74 | > 100 µM | 16 | > 100 | 25.9 | > 100 µM | 5.84 µM | 71.9 | 37.2 | > 100 | 53.2 | > 100 | 39.4 | > 100
3 | N=c1ccn2c(n1)OC1C(O)C(CO)OC12 (stereo unspecified) | 0.102 µM and 0.0335 µM | 92.2 | 0.326 | 130 | 147 µM and > 40.9 µM | > 806 | 0.0703 | 361 µM and > 100 µM | > 100 | > 1000 | 0.345 | 161 µM and > 100 µM | 163 µM and 99.6 µM | > 1000 | > 100 | > 1000 |  | > 480 |  | > 1000
4 | Oc1cc(O)c2c(c1)OC(c1ccc(O)c(O)c1)C(OC1(c3cc(O)c(O)c(O)c3)Oc3cc(O)cc(O)c3C(O)C1O)C2 (stereo unspecified) |  | 43.7 |  | 56.2 |  | > 70.9 |  | 40.2 µM |  | 45.8 |  | 50.4 µM |  | > 80 |  | > 100 |  | > 100 |  | > 100
5 | CCOC(=O)C(=Cc1cccc(Cl)c1)C(=O)OCC |  |  | 2.69 | 7.58 | 2.35 µM | 5.8 | 2.12 | 8.11 µM | 2.35 | 5.04 | 2.32 | 6.45 µM | 1.86 µM | 3.6 | 2.05 | 4.21 | 2.37 | 6.66 | 2.46 | 6.08
6 | COc1ccc(-c2cc(-c3ccccc3)c(C#N)c(=O)n2C2OC(CO)C(O)C(O)C2O)cc1 (stereo unspecified) |  | > 100 |  | > 100 |  | > 100 |  |  |  |  |  | > 100 µM |  | > 100 |  |  |  | > 100 |  | > 100
7 | O=c1[nH]c(=O)n(C2CC(O)C(CO)O2)cc1CO (stereo unspecified) | > 100 µM | > 100 | > 100 | > 100 | > 100 µM | > 100 | > 100 | > 100 µM |  |  | 31 | > 100 µM | > 100 µM | > 100 | > 100 | > 100 | 2.9 | > 100 | > 100 | > 100
8 | CCOC(=O)C1(c2ccccc2)CCC(=O)CC1 |  | > 100 |  | > 100 |  | > 100 |  |  |  |  |  | > 100 µM |  | > 100 |  |  |  | > 100 |  | > 100
9 | CC(=O)O[C@H]1CCC2[C@@H]3CCC4=C(O)c5nocc5C[C@]4(C)C3CC[C@@]21C (stereo partly specified) |  | > 100 |  | > 100 |  | > 100 |  |  |  |  |  | > 100 µM |  | > 100 |  |  |  | > 100 |  | > 100
10 | O=C1CC(C[C@H](O)C2CCCCC2O)CC(=O)N1Cc1ccccc1 (stereo partly specified) |  | > 100 |  | > 100 |  | > 100 |  |  |  |  |  | > 100 µM |  | > 100 |  |  |  | > 100 |  | > 100
11 | Cc1ccc(Cn2c(C)nc3c2C(=O)c2ccccc2C3=O)cc1 |  | > 100 |  | 42.1 |  | > 100 |  |  |  |  |  | 20.5 µM |  | 36.6 |  |  |  | 49.8 |  | 80.8
12 | COc1cc(-c2nn(-c3cccc(NC(=O)Nc4ccc(Cl)c(Cl)c4)c3)cc2-c2ccncc2)ccc1Cl |  |  | 1.44 | 4.9 | 0.811 µM | 2.77 | 0.945 | > 50 µM | 0.698 | 1.92 | 1.41 | 5.19 µM | 0.697 µM | 2.27 | 0.554 | 2.83 | 1.72 | > 50 | 1.43 | 40.9
13 | CCCCCCC[CH2][Sn]1([CH2]CCCCCCC)[O]C(=O)c2cccnc2[S]1 | > 100 µM | > 100 | > 100 | > 100 | > 100 µM | > 100 |  |  |  |  | > 100 | > 100 µM | > 100 µM | > 100 |  |  | > 100 | > 100 | > 100 | > 100
14 | O=C(NCCCCN=c1cccccc1NCCCCNC(=O)OCc1ccccc1)OCc1ccccc1 |  | 47.8 |  | 39 |  | 32.4 |  |  |  |  |  | 48.8 µM |  | 29.5 |  |  |  | 79.8 |  | 53.9
15 | COC12C=C/C(=C(/C(=O)OCc3ccncc3)C(=O)CCCCCCCCC3(OC)C=C/C(=C(/C(=O)OCc4ccncc4)C(=O)CCCCCCCC1)O3)O2 | 0.0515 µM | 2.29 | 1.18 | 5.59 | 0.78 µM | 1.78 |  |  | 0.686 | 6.51 | 0.178 | 0.762 µM | 0.207 µM | 0.93 | 0.761 | 2.67 | 1.28 | 7.17 | 1.6 | 3.67
16 | Cc1c(Cl)cccc1N1C(=O)C(Cl)=C(Cl)C1=O |  | 27.8 |  | > 100 |  | > 100 |  |  |  |  |  | > 100 µM |  | > 100 |  |  |  | > 100 |  | > 100
17 | C[C@H]1NC(=O)C2CCCCN2C(=O)CN(C)C(=O)CNC(=O)C2CCCCN2C(=O)[C@@H](NC(=O)c2nc3ccccc3cc2O)[C@@H](C)NC(=O)C2CCCCN2C(=O)CN(C)C(=O)CNC(=O)[C@@H]2CCCCN2C(=O)C1NC(=O)c1nc2ccccc2cc1O (stereo partly specified) |  | 5.16 |  | 0.66 |  | 18.7 |  |  |  |  |  | 0.69 µM |  | 0.773 |  |  |  | 2.11 |  | > 100
18 | COC1C(O)=C2C(=O)O/C(C)=C/C=C/C=C/C=C\CC(c3ccccc3)NC(=O)\C=C/C=C\C=C\C=C\[C@@]2(C)[C@@H]1O (stereo partly specified) |  | 0.0577 |  | 0.146 |  | 0.165 |  | 0.0175 µM |  | 0.0896 |  |  |  | 0.271 |  | 0.103 |  | 0.141 |  | 0.272
19 | CN(C)c1c([O-])c(=[N+](C)C)c1=O |  | > 100 |  | > 100 |  | > 100 |  |  |  |  |  | > 100 µM |  | > 100 |  |  |  | > 100 |  | > 100
